# Measured values reported in PubChem BioAssay (NCI).
#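 1) Cells in 96-well plates. 2) Compound, 48 h, 5 concentrations. 3) Linear interpolation between surrounding doses. 4) Unreached endpoint = highest concentration. Here, GI50 denotes the concentration required for 50% inhibition of growth. At the TGI there is no net growth.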
# Experiments:
# Experiment in all cases: inhibition of tumour cell growth, NCI panel, 48 h
# HT29 colon = test system: HT29 colon
# NCI-H460 lung = test system: NCI-H460 lung
# SK-MEL-28 melanoma = test system: SK-MEL-28 melanoma
# LOX IMVI melanoma = test system: LOX IMVI melanoma
# NCI-H23 lung = test system: NCI-H23 lung
# SF-268 CNS = test system: SF-268 CNS
# MOLT-4 leukemia = test system: MOLT-4 leukemia
# MCF7 breast = test system: MCF7 breast
# M14 melanoma = test system: M14 melanoma
# KM12 colon = test system: KM12 colon
# SF-295 CNS = test system: SF-295 CNS
# UACC-62 melanoma = test system: UACC-62 melanoma
# CCRF-CEM leukemia = test system: CCRF-CEM leukemia
# SR leukemia = test system: SR leukemia
# UO-31 renal = test system: UO-31 renal
# A498 renal = test system: A498 renal
# RXF 393 renal = test system: RXF 393 renal
# SF-539 CNS = test system: SF-539 CNS
# HOP-62 NSCLC = test system: HOP-62 NSCLC
# MDA-MB-435 = test system: MDA-MB-435
# NCI-H522 lung = test system: NCI-H522 lung
# OVCAR-4 ovarian = test system: OVCAR-4 ovarian
# A549 NSCLC = test system: A549 NSCLC
# UACC-257 melanoma = test system: UACC-257 melanoma
# HS 578T breast = test system: HS 578T breast
# PC-3 prostate = test system: PC-3 prostate
# IGROV1 ovarian = test system: IGROV1 ovarian
# HCT-15 colon = test system: HCT-15 colon
# OVCAR-5 ovarian = test system: OVCAR-5 ovarian
# MALME-3M melanoma = test system: MALME-3M melanoma
# RPMI-8226 leukemia = test system: RPMI-8226 leukemia
# T-47D breast = test system: T-47D breast
# 786-0 renal = test system: 786-0 renal
# U251 CNS = test system: U251 CNS
# SNB-19 CNS = test system: SNB-19 CNS
# MDA-MB-231 breast = test system: MDA-MB-231 breast
# HL-60(TB) leukemia = test system: HL-60(TB) leukemia
# OVCAR-8 ovarian = test system: OVCAR-8 ovarian
# SK-MEL-2 melanoma = test system: SK-MEL-2 melanoma
# HCT-116 colon = test system: HCT-116 colon
# SW-620 colon = test system: SW-620 colon
# SNB-75 CNS = test system: SNB-75 CNS
# HCC-2998 colon = test system: HCC-2998 colon
# OVCAR-3 ovarian = test system: OVCAR-3 ovarian
# COLO 205 colon = test system: COLO 205 colon
# DU-145 prostate = test system: DU-145 prostate
# NCI-H226 lung = test system: NCI-H226 lung
# BT-549 breast = test system: BT-549 breast
# TK-10 renal = test system: TK-10 renal
# NCI/ADR-RES ovarian = test system: NCI/ADR-RES ovarian
# K-562 leukemia = test system: K-562 leukemia
# HOP-92 NSCLC = test system: HOP-92 NSCLC
# SN12C renal = test system: SN12C renal
# EKVX NSCLC = test system: EKVX NSCLC
# CAKI-1 renal = test system: CAKI-1 renal
# SK-MEL-5 melanoma = test system: SK-MEL-5 melanoma
# SK-OV-3 ovarian = test system: SK-OV-3 ovarian
# ACHN renal = test system: ACHN renal
# MDA-N = test system: MDA-N
structure (smiles),measurement,setting,value
COc1ccc(N2C(=O)C(c3ccccc3)(c3ccccc3)C23C(=O)N(C)c2ccccc23)cc1 (configuration not stated),GI50,HT29 colon,> 100 µM
same,TGI,HT29 colon,> 100 µM
same,GI50,NCI-H460 lung,> 100 µM
same,TGI,NCI-H460 lung,> 100 µM
same,GI50,SK-MEL-28 melanoma,> 100 µM
same,TGI,SK-MEL-28 melanoma,> 100 µM
same,GI50,LOX IMVI melanoma,> 100 µM
same,TGI,LOX IMVI melanoma,> 100 µM
same,GI50,NCI-H23 lung,> 100 µM
same,TGI,NCI-H23 lung,> 100 µM
same,GI50,SF-268 CNS,> 100 µM
same,TGI,SF-268 CNS,> 100 µM
same,GI50,MOLT-4 leukemia,> 100 µM
same,TGI,MOLT-4 leukemia,> 100 µM
same,GI50,MCF7 breast,> 100 µM
same,TGI,MCF7 breast,> 100 µM
same,GI50,M14 melanoma,> 100 µM
same,TGI,M14 melanoma,> 100 µM
same,GI50,KM12 colon,> 100 µM
same,TGI,KM12 colon,> 100 µM
same,GI50,SF-295 CNS,> 100 µM
same,TGI,SF-295 CNS,> 100 µM
same,GI50,UACC-62 melanoma,> 100 µM
same,TGI,UACC-62 melanoma,> 100 µM
same,GI50,CCRF-CEM leukemia,> 100 µM
same,TGI,CCRF-CEM leukemia,> 100 µM
same,GI50,SR leukemia,> 100 µM
same,TGI,SR leukemia,> 100 µM
same,GI50,UO-31 renal,> 100 µM
same,TGI,UO-31 renal,> 100 µM
same,GI50,A498 renal,> 100 µM
same,TGI,A498 renal,> 100 µM
same,GI50,RXF 393 renal,> 100 µM
same,TGI,RXF 393 renal,> 100 µM
same,GI50,SF-539 CNS,> 100 µM
same,TGI,SF-539 CNS,> 100 µM
same,GI50,HOP-62 NSCLC,> 100 µM
same,TGI,HOP-62 NSCLC,> 100 µM
same,GI50,MDA-MB-435,> 100 µM
same,TGI,MDA-MB-435,> 100 µM
same,GI50,NCI-H522 lung,> 100 µM
same,TGI,NCI-H522 lung,> 100 µM
same,GI50,OVCAR-4 ovarian,> 100 µM
same,TGI,OVCAR-4 ovarian,> 100 µM
same,GI50,A549 NSCLC,> 100 µM
same,TGI,A549 NSCLC,> 100 µM
same,GI50,UACC-257 melanoma,> 100 µM
same,TGI,UACC-257 melanoma,> 100 µM
same,GI50,HS 578T breast,> 100 µM
same,TGI,HS 578T breast,> 100 µM
same,GI50,PC-3 prostate,> 100 µM
same,TGI,PC-3 prostate,> 100 µM
same,GI50,IGROV1 ovarian,> 100 µM
same,TGI,IGROV1 ovarian,> 100 µM
same,GI50,HCT-15 colon,> 100 µM
same,TGI,HCT-15 colon,> 100 µM
same,GI50,OVCAR-5 ovarian,> 100 µM
same,TGI,OVCAR-5 ovarian,> 100 µM
same,GI50,MALME-3M melanoma,> 100 µM
same,TGI,MALME-3M melanoma,> 100 µM
same,GI50,RPMI-8226 leukemia,> 100 µM
same,TGI,RPMI-8226 leukemia,> 100 µM
same,GI50,T-47D breast,> 100 µM
same,TGI,T-47D breast,> 100 µM
same,GI50,786-0 renal,> 100 µM
same,TGI,786-0 renal,> 100 µM
same,GI50,U251 CNS,> 100 µM
same,TGI,U251 CNS,> 100 µM
same,GI50,SNB-19 CNS,> 100 µM
same,TGI,SNB-19 CNS,> 100 µM
same,GI50,MDA-MB-231 breast,54 µM
same,TGI,MDA-MB-231 breast,> 100 µM
same,GI50,HL-60(TB) leukemia,> 100 µM
same,TGI,HL-60(TB) leukemia,> 100 µM
same,GI50,OVCAR-8 ovarian,> 100 µM
same,TGI,OVCAR-8 ovarian,> 100 µM
same,GI50,SK-MEL-2 melanoma,> 100 µM
same,TGI,SK-MEL-2 melanoma,> 100 µM
same,GI50,HCT-116 colon,> 100 µM
same,TGI,HCT-116 colon,> 100 µM
same,GI50,SW-620 colon,> 100 µM
same,TGI,SW-620 colon,> 100 µM
same,GI50,SNB-75 CNS,89.1 µM
same,TGI,SNB-75 CNS,> 100 µM
same,GI50,HCC-2998 colon,> 100 µM
same,TGI,HCC-2998 colon,> 100 µM
same,GI50,OVCAR-3 ovarian,> 100 µM
same,TGI,OVCAR-3 ovarian,> 100 µM
same,GI50,COLO 205 colon,> 100 µM
same,TGI,COLO 205 colon,> 100 µM
same,GI50,DU-145 prostate,> 100 µM
same,TGI,DU-145 prostate,> 100 µM
same,GI50,NCI-H226 lung,> 100 µM
same,TGI,NCI-H226 lung,> 100 µM
same,GI50,BT-549 breast,> 100 µM
same,TGI,BT-549 breast,> 100 µM
same,GI50,TK-10 renal,> 100 µM
same,TGI,TK-10 renal,> 100 µM
same,GI50,NCI/ADR-RES ovarian,> 100 µM
same,TGI,NCI/ADR-RES ovarian,> 100 µM
same,GI50,K-562 leukemia,> 100 µM
same,TGI,K-562 leukemia,> 100 µM
same,GI50,HOP-92 NSCLC,> 100 µM
same,TGI,HOP-92 NSCLC,> 100 µM
same,GI50,SN12C renal,> 100 µM
same,TGI,SN12C renal,> 100 µM
same,GI50,EKVX NSCLC,> 100 µM
same,TGI,EKVX NSCLC,> 100 µM
same,GI50,CAKI-1 renal,> 100 µM
same,TGI,CAKI-1 renal,> 100 µM
same,GI50,SK-MEL-5 melanoma,> 100 µM
same,TGI,SK-MEL-5 melanoma,> 100 µM
same,GI50,SK-OV-3 ovarian,> 100 µM
same,TGI,SK-OV-3 ovarian,> 100 µM
same,GI50,ACHN renal,> 100 µM
same,TGI,ACHN renal,> 100 µM
CC(=O)n1nc(-c2ccccc2)n(/N=C/c2ccc([N+](=O)[O-])cc2)c1=O,TGI,HT29 colon,> 100 µM
same,TGI,NCI-H460 lung,> 100 µM
same,TGI,SK-MEL-28 melanoma,> 100 µM
same,TGI,LOX IMVI melanoma,> 100 µM
same,TGI,NCI-H23 lung,> 100 µM
same,TGI,SF-268 CNS,> 100 µM
same,TGI,MOLT-4 leukemia,> 100 µM
same,TGI,M14 melanoma,> 100 µM
same,TGI,KM12 colon,> 100 µM
same,TGI,SF-295 CNS,> 100 µM
same,TGI,UACC-62 melanoma,> 100 µM
same,TGI,CCRF-CEM leukemia,> 100 µM
same,TGI,SR leukemia,> 100 µM
same,TGI,UO-31 renal,> 100 µM
same,TGI,A498 renal,> 100 µM
same,TGI,RXF 393 renal,> 100 µM
same,TGI,SF-539 CNS,> 100 µM
same,TGI,MDA-MB-435,> 100 µM
same,TGI,MDA-N,> 100 µM
same,TGI,NCI-H522 lung,> 100 µM
same,TGI,OVCAR-4 ovarian,> 100 µM
same,TGI,A549 NSCLC,> 100 µM
same,TGI,UACC-257 melanoma,> 100 µM
same,TGI,PC-3 prostate,> 100 µM
same,TGI,IGROV1 ovarian,> 100 µM
same,TGI,HCT-15 colon,> 100 µM
same,TGI,OVCAR-5 ovarian,> 100 µM
same,TGI,MALME-3M melanoma,> 100 µM
same,TGI,RPMI-8226 leukemia,> 100 µM
same,TGI,T-47D breast,> 100 µM
same,TGI,786-0 renal,> 100 µM
same,TGI,U251 CNS,> 100 µM
same,TGI,SNB-19 CNS,> 100 µM
same,TGI,MDA-MB-231 breast,> 100 µM
same,TGI,HL-60(TB) leukemia,> 100 µM
same,TGI,OVCAR-8 ovarian,> 100 µM
same,TGI,SK-MEL-2 melanoma,> 100 µM
same,TGI,HCT-116 colon,> 100 µM
same,TGI,SW-620 colon,> 100 µM
same,TGI,SNB-75 CNS,> 100 µM
same,TGI,HCC-2998 colon,> 100 µM
same,TGI,OVCAR-3 ovarian,> 100 µM
same,TGI,COLO 205 colon,> 100 µM
same,TGI,DU-145 prostate,> 100 µM
same,TGI,NCI-H226 lung,> 100 µM
same,TGI,BT-549 breast,> 100 µM
same,TGI,TK-10 renal,> 100 µM
same,TGI,NCI/ADR-RES ovarian,> 100 µM
same,TGI,K-562 leukemia,> 100 µM
same,TGI,HOP-92 NSCLC,> 100 µM
same,TGI,SN12C renal,> 100 µM
same,TGI,EKVX NSCLC,> 100 µM
same,TGI,CAKI-1 renal,> 100 µM
same,TGI,SK-MEL-5 melanoma,> 100 µM
same,TGI,SK-OV-3 ovarian,> 100 µM
same,TGI,ACHN renal,> 100 µM
